# Measured values taken from article PMC10290124 (Nature Communications, 2023).
# Assays:
# human TRPV4 (hTRPV4) [1] = molecular target: T1, human TRPV4 (hTRPV4) (Homo sapiens, UniProt Q9HBA0)
# RhoA = molecular target: T2, RhoA (Homo sapiens, UniProt P61586); test: cryo-EM structure of the hTRPV4-RhoA complex (ARD-RhoA local refinement, […] Å); type: binding
# T2 construct: endogenous RhoA from HEK 293S cells, co-purified with hTRPV4; with TRPV4
# human TRPV4 (hTRPV4) [2] = molecular target: T1, human TRPV4 (hTRPV4); test: cryo-EM structure ([…] Å, open state); EC50 from Fura-2 calcium imaging in HEK […] cells; type: cell-based; set-up: with RhoA
# T1 sequence (Q9HBA0 whole entry): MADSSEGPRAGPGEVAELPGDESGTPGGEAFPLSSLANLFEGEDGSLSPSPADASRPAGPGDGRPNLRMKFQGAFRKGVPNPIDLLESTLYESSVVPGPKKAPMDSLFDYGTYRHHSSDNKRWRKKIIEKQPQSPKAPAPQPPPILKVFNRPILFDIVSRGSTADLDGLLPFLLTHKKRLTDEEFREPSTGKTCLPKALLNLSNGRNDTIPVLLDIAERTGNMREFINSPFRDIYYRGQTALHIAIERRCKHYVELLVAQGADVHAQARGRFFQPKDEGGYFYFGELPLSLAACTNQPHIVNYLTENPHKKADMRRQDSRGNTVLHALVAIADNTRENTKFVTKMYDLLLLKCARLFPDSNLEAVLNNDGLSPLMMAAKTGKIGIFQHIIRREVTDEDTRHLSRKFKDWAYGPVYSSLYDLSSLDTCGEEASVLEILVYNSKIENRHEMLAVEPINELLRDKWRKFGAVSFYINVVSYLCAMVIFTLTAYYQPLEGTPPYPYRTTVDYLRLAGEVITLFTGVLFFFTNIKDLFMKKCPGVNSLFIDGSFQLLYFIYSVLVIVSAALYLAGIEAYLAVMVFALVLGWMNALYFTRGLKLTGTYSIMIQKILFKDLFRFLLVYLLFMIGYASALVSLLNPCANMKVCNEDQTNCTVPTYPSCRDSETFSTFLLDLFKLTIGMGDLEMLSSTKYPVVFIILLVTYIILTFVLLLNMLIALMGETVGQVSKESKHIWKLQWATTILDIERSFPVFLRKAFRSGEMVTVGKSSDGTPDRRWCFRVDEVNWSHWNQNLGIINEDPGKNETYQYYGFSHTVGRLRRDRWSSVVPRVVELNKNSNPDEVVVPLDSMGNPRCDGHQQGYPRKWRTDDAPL
# T1 sequence (P61586 1-190 partner): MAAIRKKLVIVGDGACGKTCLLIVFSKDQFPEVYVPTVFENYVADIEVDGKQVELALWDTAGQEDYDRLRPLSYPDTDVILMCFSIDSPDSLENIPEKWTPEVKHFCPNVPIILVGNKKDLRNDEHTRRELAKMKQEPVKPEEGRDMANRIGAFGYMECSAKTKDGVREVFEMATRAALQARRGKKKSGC
# T2 sequence (P61586 1-190): as the sequence (P61586 1-190 partner) above
# T2 sequence (Q9HBA0 whole entry partner): as the sequence (Q9HBA0 whole entry) above
smiles,measurement,setting,value
Cc1c(C(=O)Nc2cccc(C(F)(F)F)c2)cc(-c2ccccc2)n1CCCN1CCOCC1 [HC-067047],IC50,human TRPV4 (hTRPV4) [1],25 ± 6.2 nM
"Nc1nc2c(ncn2[C@@H]2O[C@H](CO[P@](=O)(O)OP(=O)(O)O)[C@@H](O)[C@H]2O)c(=O)[nH]1 [GDP, guanosine diphosphate]","cryo-EM structure of the hTRPV4-RhoA complex (ARD-RhoA local refinement, 3.49 Å)",RhoA,unambiguously identify the endogenous molecule of guanosine diphosphate (GDP) bound in the RhoA ligand-binding pocket
"CCCCCCCCCC(=O)O[C@@H]1[C@@H](C)[C@@]2(O)[C@@H](C=C(CO)C[C@@]3(O)C(=O)C(C)=C[C@@H]23)[C@@H]2C(C)(C)[C@]12OC(=O)CCCCCCCCC [4α-PDD, 4α-phorbol 12,13-didecanoate]",EC50,human TRPV4 (hTRPV4) [2],450 ± 39 nM
